Measured values as given in US20220104493A1, “HERBICIDAL COMPOUNDS” (SYNGENTA CROP PROTECTION AG, priority 2019, published 2022).

Experiments:
Assay in all cases: Post-emergence efficacy, Method A
Format in all cases: in vivo
[1] = system: Ipomoea hederacea (IPOHE); conditions: 100=total damage to plant, 0=no damage, evaluated after 7 and 14 days, read-out: Control of weed species after post-emergence application, IPOHE
[2] = system: Echinochloa crus-galli (ECHCG); conditions: 100=total damage to plant, 0=no damage, evaluated after 7 and 14 days, read-out: Control of weed species after post-emergence application, ECHCG
[3] = system: Digitaria sanguinalis (DIGSA); conditions: 100=total damage to plant, 0=no damage, evaluated after 7 and 14 days, read-out: Control of weed species after post-emergence application, DIGSA
Eleusine indica (ELEIN) = conditions: 100=total damage to plant, 0=no damage, evaluated after 7 and 14 days, read-out: Control of weed species after post-emergence application, ELEIN
[4] = system: Euphorbia heterophylla (EPHHL); conditions: 100=total damage to plant, 0=no damage, evaluated after 7 and 14 days, read-out: Control of weed species after post-emergence application, EPHHL
Setaria faberi (SETFA) = conditions: 100=total damage to plant, 0=no damage, evaluated after 7 and 14 days, read-out: Control of weed species after post-emergence application, SETFA
[5] = system: Amaranthus palmeri (AMAPA); conditions: 100=total damage to plant, 0=no damage, evaluated after 7 and 14 days, read-out: Control of weed species after post-emergence application, AMAPA
Lolium perenne (LOLPE) = conditions: 100=total damage to plant, 0=no damage, evaluated after 7 and 14 days, read-out: Control of weed species after post-emergence application, LOLPE
[6] = system: Chenopodium album (CHEAL); conditions: 100=total damage to plant, 0=no damage, evaluated after 7 and 14 days, read-out: Control of weed species after post-emergence application, CHEAL

SMILES	pest or weed control at 500 g/ha [1] [%]	pest or weed control at 500 g/ha [2] [%]	pest or weed control at 500 g/ha [3] [%]	pest or weed control at 500 g/ha (Eleusine indica (ELEIN)) [%]	pest or weed control at 500 g/ha [4] [%]	pest or weed control at 500 g/ha (Setaria faberi (SETFA)) [%]	pest or weed control at 500 g/ha [5] [%]	pest or weed control at 500 g/ha (Lolium perenne (LOLPE)) [%]	pest or weed control at 500 g/ha [6] [%]	pest or weed control at 1000 g/ha ([1]; 1000 g/Ha) [%]	pest or weed control at 1000 g/ha ([2]; 1000 g/Ha) [%]	pest or weed control at 1000 g/ha ([3]; 1000 g/Ha) [%]	pest or weed control at 1000 g/ha (Eleusine indica (ELEIN); 1000 g/Ha) [%]	pest or weed control at 1000 g/ha ([4]; 1000 g/Ha) [%]	pest or weed control at 1000 g/ha (Setaria faberi (SETFA); 1000 g/Ha) [%]	pest or weed control at 1000 g/ha ([5]; 1000 g/Ha) [%]	pest or weed control at 1000 g/ha (Lolium perenne (LOLPE); 1000 g/Ha) [%]	pest or weed control at 1000 g/ha ([6]; 1000 g/Ha) [%]
O=S(=O)([O-])C[n+]1ccc(-c2cnns2)cc1 [Compound A3, [4-(thiadiazol-5-yl)pyridin-1-ium-1-yl]methanesulfonate]	80	40	70	50	80	80	100	20	90									
O=S(=O)([O-])CC[n+]1ccc(-c2ncns2)cc1 [Compound A5, 2-[4-(1,2,4-thiadiazol-5-yl)pyridin-1-ium-1-yl]ethanesulfonate]	70	40	70	80	100	60	100	70	90									
O=C(O)C[n+]1ccc(-c2ncns2)cc1 [Compound A6]	80	90	70	90	100	80	100	30	100									
O=C(O)CC[n+]1ccc(-c2ncns2)cc1 [Compound A7, 3-[4-(1,2,4-thiadiazol-5-yl)pyridin-1-ium-1-yl]propanoic acid chloride]	30	50	90	70	80	70	100	30	90									
COC(=O)C[n+]1ccc(-c2cnns2)cc1 [Compound A8, methyl 2-[4-(thiadiazol-5-yl)pyridin-1-ium-1-yl]acetate bromide]	10	20	50	30	60	30		0	70									
O=C(O)C[n+]1ccc(-c2cnns2)cc1 [Compound A9, 2-[4-(thiadiazol-5-yl)pyridin-1-ium-1-yl]acetic acid chloride]	20				10	0	30	0	0									
O=S(=O)([O-])CCC[n+]1ccc(-c2cnsn2)cc1 [Compound A12]										0	0	20	20	20	0	0	10	0
O=C(O)C[n+]1ccc(-c2ncno2)cc1 [Compound A13]	30	50	60	50	70	70	100	10	50									
O=C(O)CC[n+]1ccc(-c2ncno2)cc1 [Compound A14]	20	50	50	40	30	60	100	10	70									
COC(=O)C[n+]1ccc(-c2nnco2)cc1 [Compound A16]	20	20	40	10	20	30	0	0	0									
O=C(O)C[n+]1ccc(-c2nc(C(F)(F)F)cs2)cc1 [Compound A22]	0				40	0	10	0	10									
CC(C(=O)O)[n+]1ccc(-c2ncns2)cc1 (stereo not drawn) [Compound A28]	70				20	80	100	30	80									
Cn1nnc(-c2cc[n+](CS(=O)(=O)[O-])cc2)n1 [Compound A35]	40	40	20	20	50	30	70		60									
CNC(=O)c1nc(-c2cc[n+](CCCS(=O)(=O)[O-])cc2)no1 [Compound A51]	10	30	50	10		30	10	20	60									
CNC(=O)c1cc(-c2cc[n+](CCCS(=O)(=O)[O-])cc2)on1 [Compound A52]	10	10	20	10		10	20	10	30									
O=S(=O)([O-])C[n+]1ccc(-c2csnn2)cc1 [Compound A54]	20	0	10	20		0	20	0	20									
O=C(O)CC[n+]1ccc(-c2ncns2)c(F)c1 [Compound A55]	30				10	20	50	30	40									
O=C(O)CC[n+]1ccc(-c2ncns2)c(Cl)c1 [Compound A56]	30				100	30	60	10	30									
CS(=O)(=O)c1c[n+](CCC(=O)O)ccc1-c1ncns1 [Compound A93, 3-[3-methylsulfonyl-4-(1,2,4-thiadiazol-5-yl)pyridin-1-ium-1-yl]propanoic acid bromide]	30	40		30	30	30	60	10	30									
